Experimental data taken from US7767196B2, “Optimized relaxivity and specificity hepatobiliary MRI contrast agent” (priority 2005, dated 2010).
Values joined by “and” are separate entries in the source; they are usually repeats but may differ in a detail not shown here. Equal values may be shown once. Read-outs that look alike come from different tables or passages of the source.

Tests used:
[1] = cited from earlier work
rats = settings: cited from earlier work
[2] = NMRD profile / relaxometric measurements (1H longitudinal relaxivity, incl. temperature and pH dependence); format: physicochemical; settings: for R1p: 20 MHz and 25° C.; for relaxivity (NMRD profile): 20 MHz, 7.2 pH and 25° C.; for rGdH / Δ^2 / τr / τv: fitting parameter, NMRD profile
Excerpt: Relaxivity is used to describe the efficiency of a paramagnetic substance in increasing the water longitudinal relaxation rate. NMRD profiling is a direct method of measuring the proton relaxivity, and in principle it is sensitive to all of the parameters that influence relaxivity. It is the nuclear relaxation rate (1/T1) as a function of the Larmor frequency or the magnetic field, and describes the excess longitudinal proton relaxation that is caused by the presence of contrast agents as a function of the magnetic field using a field-cycling technique. The NMRD profile can probe the relaxivity mechanisms and understand how changes in the chemical structure of the complex interfere with them. The change in experimental parameters such as temperature and pressure influences the physical or chemical state of the sample, but the variation of the magnetic field has no influence on the chemistry of the sample. Thus, NMRD is a useful technique in the understanding of the numerous physiochemical parameters that determine the field dependence of proton relaxivities. The innersphere, outersphere, and second sphere contribute to the overall relaxivity and are influenced by numerous parameters, which are too complex to be well-defined by a single NMRD study; usually, reference to independent ^17O NMR relaxation rates and chemical shift is made. By the equations 2-7, several parameters that are related to the outersphere, and innersphere relaxation, such as the hydration number q, the τm, τR, τv, Δ^2, and rGdH, can be estimated.
As shown in FIGS. 5-8, all complexes have one innersphere water molecule. At low field, the electronic relaxation dominates the dipole-dipole correlation time for innersphere relaxivity and results in the first dispersion at around a […] proton Larmor frequency, while at high field, rotation relaxation dominates and the dispersion is at around 30 MHz. The higher relaxivity as compared to the clinical agents is postulated to the longer reorientational correlation time τR and the shorter rGdH. Relaxivity has a dependence on the τR at 20 MHz, which is determined by the molecular dimension.
The temperature and pH dependence of the longitudinal relaxivity were measured to study the tolerance of the complex under different physiological conditions (see FIGS. 9-10). At the low temperature under the slow exchange rate (τm>>T1M) a relatively longer τm is insignificant. The innersphere quenching is not severed and is not dominated by the outersphere mechanism at 273-278 K. Beyond 278 K the innersphere contribution increases up to 288 K. This is the τm≈T1M region, where the onset of the innersphere and the slow water exchange is not interfered with. From 288 K to 330 K, there is a gradual drop in the relaxivity due to the increase in D and T1M which causes both the innersphere and outersphere relaxivities to fall under the fast exchange condition (τm<<T1M). The relaxivity is 4.93 mM^−1s^−1at physiological temperature. […] The structural arrangement around the metal centre is not severely distorted, which allows a high stability against different pH.
NMRD profiles measure the longitudinal water proton relaxation rate as a function of magnetic fields. Measurements were performed by a Spinmaster FFC fast field cycling NMR relaxometer that covered a continuum of magnetic fields from 0.00024 to 0.47 T. The temperature was controlled by circulating Freon from an external bath and measured by a thermometer that was inserted into the Freon close to the sample. The relaxometer worked under complete control with the reproducibility of the measured T1 values estimated to be ±2%. The NMRD profiles were acquired for a 1-2 mM solution of the complex. Xylenol orange test was employed to check the absence of free Gd(III).

[3] = Variable-temperature 17O NMR transverse relaxation (water exchange); format: physicochemical; settings: for τm: fitting parameter, 17O transverse relaxivity study
Protocol: Further investigation into the transverse relaxivity changes against temperature as shown in FIG. 6 was performed to determine the exchange rate. The maximum appears at a lower temperature, which implies a faster water exchange rate. The water exchange rates of the discussed ligands are in the order of Gd-BOPTA (kex=5.0×10^6)>Gd-DTPA (kex=4.0×10^6)>Gd-DOTA (kex=3.3×10^6)>GdL (kex=1.1×10^6). As anionic complexes promote water exchange, the first three complexes are anionic species with faster water exchange rates. GdL is neutral with a lower exchange rate, but with a lower osmolality, and importantly, the highest relaxivity.
Variable-temperature ^17O NMR measurements were recorded on a JEOL EX-90 (2.1 T) spectrometer that was equipped with a 5 mm probe, using D2O for external lock of the magnetic field. Experimental settings were spectral width 10000 Hz, pulse width 7 μs, acquisition time 10 ms, 1000 scans, and no sample spinning. The solution used contained ^17O enriched water (2.6%, Yeda, Israel). The observed transverse relaxation rate (R^O2obs) was calculated from the line width of the resonance at half height (Δν1/2): R^O2obs=πΔν1/2.

[4] = test system: non-tumorigenic immortalized liver cell line (MIHA); test: Hepatocellular uptake (ICP-MS of Gd per cell); format: cell-based
Protocol: The non-tumorigenic immortalized liver cell line (MIHA) was grown and incubated in different concentrations of GdL and Gd-BOPTA. The mole of gadolinium uptake per cell under different concentrations of GdL incubation is presented as a function of concentration in FIG. 16. […] The average increase is 7.2×10^−13 mole of Gd per cell (about 1.97 times more than Gd-BOPTA) and the maximum uptake is 3.1×10^−12 mol of Gd per cell at 5 mM. There was no gadolinium ion found in the control experiments in the absence of GdL. The uptake varied slightly at the incubation concentration of less than 0.5 mM and linearly when the concentration increases from 0.5 to 5 mM. […]
The non-tumorigenic immortalized liver cell line (MIHA) (kindly provided by Dr J. R. Chowdhury at the Albert Einstein College of Medicine, New York) was grown in a 96-well plate (polystyrene, flat bottom tissue-culture treated, black with clear bottom) with Dulbecco's modified Eagle's medium (DMEM with 4 mM L-glutamine modified to contain 4.5 g l^−1 glucose and 1.5 g l^−1 sodium bicarbonate) containing 10% Bovine Calf Serum (BCS) in a 5% carbon dioxide incubator. […] The cells were exposed to 100 μl of 0.25% trypsin and harvested, then counted by hemacytometer. […] The samples were analyzed by Agilent 7500a ICP-MS with ICP-MS Top installed.

liver [5] = settings: Schima et al., J. Magn. Res. Imaging 1999; cited from earlier work
hepatocytes [6] = settings: cited from earlier work
hepatocytes [7] = settings: cited from earlier work; remark: listed apart in the source
[8] = versus 0.29 osmol kg^−1 of body fluid; cited from earlier work
liver [9] = settings: 0.1 mmol kg^−1 dose, intravenous bolus; cited from earlier work
[10] = 20 MHz, temperature in parentheses: 40

## O=C([O-])CN1CCN(CC(=O)[O-])CCN([C@H](CO)[C@H](O)CO)CCN(CC(=O)[O-])CC1.[Gd+3] (racemic) [Gd-DO3A-butrol, gadobutrol]
[1]; [10]
  Relaxivity: 3.60 (40) mM^−1 s^−1

## [Gd+3] [Gd(III) aqua ion]
rats
  LD50: 0.1 to 0.2 mmol/kg

## CNC(=O)CN(CCN(CCN(CC(=O)[O-])CC(=O)NC)CC(=O)[O-])CC(=O)[O-].[Gd+3] [Gd-BMA, gadodiamide]
[1]; 20 MHz and 25° C.
  Relaxivity: 4.39 mM⁻¹ s⁻¹

## COCCNC(=O)CN(CCN(CCN(CC(=O)[O-])CC(=O)NCCOC)CC(=O)[O-])CC(=O)[O-].[Gd+3] [Gd-BMEA, gadoversetamide]
[1]; [10]
  Relaxivity: 4.70 (40) mM^−1 s^−1

## CNC[C@H](O)[C@@H](O)[C@H](O)[C@H](O)CO.CNC[C@H](O)[C@@H](O)[C@H](O)[C@H](O)CO.O=C([O-])CN(CCN(CC(=O)[O-])CC(=O)O)CCN(CC(=O)O)C(COCc1ccccc1)C(=O)[O-].[Gd+3] (stereo not shown) [Gd-BOPTA, gadobenate dimeglumine]
[2]
  R1p: 5.20 mM⁻¹ s⁻¹
  relaxivity (NMRD profile): 5.20 mM⁻¹ s⁻¹
  rGdH: 2.96 Å
  Δ^2: 4.2 E19 s^−1
  τr: 88 ps
  τv: 26 ps
[3]
  water exchange rate kex: 5.0×10^6
  τm: 200 ns
[4]
  dose dependence of uptake: not significant
[1]; 20 MHz and 25° C.
  Relaxivity: 5.2 mM⁻¹ s⁻¹ and 5.20 mM⁻¹ s⁻¹
Liver [5]
  hepatic intensity enhancement: 55%
Hepatocytes [6]; humans, intravenous injection
  percentage of contrast agent excreted: over 95%
Hepatocytes [6]; humans
  hepatic (hepatocellular) uptake: 3-5 % of the injected dose
Hepatocytes [7]; rats
  hepatocellular uptake: 38.6%

## CNC[C@H](O)[C@@H](O)[C@H](O)[C@H](O)CO.O=C([O-])CN1CCN(CC(=O)[O-])CCN(CC(=O)O)CCN(CC(=O)[O-])CC1.[Gd+3] [Gd-DOTA, gadoterate meglumine]
[2]
  R1p: 4.73 mM⁻¹ s⁻¹
  relaxivity (NMRD profile): 4.73 mM⁻¹ s⁻¹
  rGdH: 3.10 Å
  Δ^2: 1.3 E19 s^−1
  τr: 73 ps
  τv: 7.7 ps
[3]
  water exchange rate kex: 3.3×10^6
  τm: 300 ns
[1]; 20 MHz and 25° C.
  Relaxivity: 4.73 mM⁻¹ s⁻¹

## CNC[C@H](O)[C@@H](O)[C@H](O)[C@H](O)CO.CNC[C@H](O)[C@@H](O)[C@H](O)[C@H](O)CO.O=C([O-])CN(CCN(CC(=O)[O-])CC(=O)O)CCN(CC(=O)[O-])CC(=O)O.[Gd+3] [Gd-DTPA, gadopentetate dimeglumine]
[2]
  R1p: 4.69 mM⁻¹ s⁻¹
  rGdH: 3.10 Å
  Δ^2: 4.2 E19 s^−1
  τr: 73 ps
  τv: 20 ps
[3]
  water exchange rate kex: 4.0×10^6
  τm: 250 ns
[1]; 20 MHz and 25° C.
  Relaxivity: 4.69 mM⁻¹ s⁻¹
[8]
  osmolality: 1.96 osmol kg^−1
Liver [9]
  tolerance: good tolerance

## CCOc1ccc(C[C@@H](CN(CCN(CC(=O)[O-])CC(=O)[O-])CC(=O)[O-])N(CC(=O)[O-])CC(=O)[O-])cc1.[Gd+3].[Na+].[Na+] [Gd-EOB-DTPA]
Hepatocytes [6]; in vivo
  hepatic (hepatocellular) uptake: 50 % of the injected dose
Hepatocytes [7]; rat, in vivo
  hepatocellular uptake: 70%

## CC(O)CN1CCN(CC(=O)[O-])CCN(CC(=O)[O-])CCN(CC(=O)[O-])CC1.[Gd+3] (stereo not shown) [Gd-HP-DO3A, gadoteridol]
[1]; [10]
  Relaxivity: 3.70 (40) mM^−1 s^−1
